Reference: patent US20190314285A1, “DOSAGE FORMS COMPRISING ABIRATERONE ACETATE” (Janssen Pharmaceutica NV, priority 2018, published 2019)

Columns and labels:
mCRPC = details: cited from earlier work
[1] = tested on: circulating androgens (testosterone, DHT, DHEA, androstenedione); details: added to castration, relative to castration alone; cited from earlier work
[2] = Plasma concentrations of abiraterone acetate in previous studies; assay type: in vivo
17,20-lyase (CYP17A1) = target: T1, 17,20-lyase (CYP17A1) (Homo sapiens, UniProt P05093); details: cited from earlier work
T1 sequence (P05093 1-508): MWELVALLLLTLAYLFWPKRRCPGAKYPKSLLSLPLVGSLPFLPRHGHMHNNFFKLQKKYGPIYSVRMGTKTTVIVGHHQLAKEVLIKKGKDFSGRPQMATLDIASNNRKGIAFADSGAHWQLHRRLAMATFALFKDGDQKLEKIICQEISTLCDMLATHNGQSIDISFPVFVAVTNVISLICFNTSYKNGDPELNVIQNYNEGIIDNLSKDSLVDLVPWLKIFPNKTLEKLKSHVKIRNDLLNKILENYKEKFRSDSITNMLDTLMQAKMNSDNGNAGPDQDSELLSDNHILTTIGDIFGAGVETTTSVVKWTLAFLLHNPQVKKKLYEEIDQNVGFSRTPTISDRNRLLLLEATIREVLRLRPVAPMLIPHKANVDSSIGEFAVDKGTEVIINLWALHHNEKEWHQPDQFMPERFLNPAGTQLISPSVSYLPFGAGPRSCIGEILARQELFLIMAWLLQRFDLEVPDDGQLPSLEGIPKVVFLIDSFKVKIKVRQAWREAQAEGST

O=C(c1cc(Cc2n[nH]c(=O)c3ccccc23)ccc1F)N1CCN(C(=O)C2CC2)CC1 [olaparib]
biomarker-negative patient tumors with a response (mCRPC; 2 of 33): 6%
responders who were biomarker-positive for anomalies in DNA-repair genes (mCRPC; 14 of the 16 patients with a response): 88%
patients with ATM aberrations who had a response (mCRPC; human, in vivo): 4 of 5
patients with BRCA-2 loss who had a response (mCRPC; human, in vivo): all 7 patients

CC(=O)O[C@H]1CC[C@@]2(C)C(=CC[C@@H]3[C@@H]2CC[C@]2(C)C(c4cccnc4)=CC[C@@H]32)C1 [abiraterone acetate, Abiraterone acetate]
reduction of DHEA levels [1]: 97-98%
reduction of DHT levels [1]: 85%
reduction of androstenedione levels [1]: 77-78%
plasma concentrations of abiraterone acetate [2]: below the lower limit of quantitation

C[C@]12CC[C@H](O)CC1=CC[C@@H]1[C@@H]2CC[C@]2(C)C(c3cccnc3)=CC[C@@H]12 [Abiraterone]
IC50 (17,20-lyase (CYP17A1)): 15 nM
